# In patent US20060019892A1 (Florida Atlantic University, priority 2003, published 2006):
# Key:
# [1] = system: nAChR; details: cited from earlier work
# [2] = system: primary cultures of rat neonatal cortex (cultured cortical neurons); assay type: cell-based
substance,measurement,setting,value
RDOCCYHPTCNMSNPQIC* [EI],Target: nAChR (subtype),[1],α1γ = α1δβ2 musc.
HOCCLYGK-CRRYOGCSSASASCCQR [ψPIIIE],nAChR activity annotation,[1],non comp. nAChR
A-O-A-N-S-V*-W-S [gla-1],effect on Ca^++ flux in the cells,[2],reducing Ca^++ flux
same,modulation of Ca^++ flux in cultured neurons from rat cortex,[2],modulate Ca^++ flux
